The text below walks through data of ChEMBL document CHEMBL3045104, “Synthesis and antibacterial activity of 4-benzoyl-1-(4-carboxy-phenyl)-5-phenyl-1H-pyrazole-3-carboxylic acid and derivatives” (2009).

In general, MIC refers to the lowest concentration found to suppress growth.

Converted amounts (≈) assume the structure as drawn. The source made the active and inactive calls. The calls are words filed in the database; no cut-off is given here.

Holding throughout (type): functional
One assay concerns Proteus vulgaris. The experiment in a line: Antimicrobial activity against Proteus vulgaris Kuk. 1329 after overnight incubation by microdilution broth susceptibility assay. A general note: Broth dilution looks for growth in wells or tubes with falling amounts of substance.
In the next assay the test system is Bacillus subtilis. The experiment in a line: Antimicrobial activity against Bacillus subtilis ATCC 6633 after overnight incubation by microdilution broth susceptibility assay.
The test system of a further assay is Salmonella enteritidis. The experiment in a line: Antimicrobial activity against Salmonella enterica subsp. enterica serovar Enteritidis ATCC 1376 after overnight incubation by microdilution broth susceptibility assay.
The subject of a further assay is Enterococcus faecalis. The assay is described as follows: Antimicrobial activity against Enterococcus faecalis ATCC 29122 after overnight incubation by microdilution broth susceptibility assay.
The subject of the next assay is Klebsiella pneumoniae. The assay is described as follows: Antimicrobial activity against Klebsiella pneumoniae A137 after overnight incubation by microdilution broth susceptibility assay.
Another assay deals with Staphylococcus aureus. The assay is described as follows: Antimicrobial activity against Staphylococcus aureus ATCC 29213 after overnight incubation by microdilution broth susceptibility assay.
For a further assay, the system named is Escherichia coli. The assay is described as follows: Antimicrobial activity against Escherichia coli B3704 after overnight incubation by microdilution broth susceptibility assay.
The test system of the next assay is Xanthomonas campestris. The experiment in a line: Antimicrobial activity against Xanthomonas campestris A235 after overnight incubation by microdilution broth susceptibility assay.
Another assay relates to Streptococcus pyogenes. The experiment in a line: Antimicrobial activity against Streptococcus pyogenes ATCC 176 after overnight incubation by microdilution broth susceptibility assay.
Another assay deals with Pseudomonas aeruginosa. The experiment in a line: Antimicrobial activity against Pseudomonas aeruginosa ATCC 9027 after overnight incubation by microdilution broth susceptibility assay.

Turning to `O=C(O)c1ccc(-n2nc3c(=O)n(-c4ccc(C(=O)O)cc4)nc(-c4ccccc4)c3c2-c2ccccc2)cc1`, the MIC entry in the assay on Proteus vulgaris, with Salmonella enteritidis, with Enterococcus faecalis, in the assay with Staphylococcus aureus, in the assay on Xanthomonas campestris and in the assay with Streptococcus pyogenes was “inactive” throughout. For the same compound, the minimal inhibitory concentration (MIC) is 242 µM (≈ 128 µg/mL) against Bacillus subtilis, 121 µM (≈ 64 µg/mL) against Klebsiella pneumoniae, 121 µM (≈ 64 µg/mL) in the assay with Escherichia coli and 242 µM (≈ 128 µg/mL) against Pseudomonas aeruginosa.
Consider `O=C(O)c1ccc(-n2nc(C(=O)O)c(C(=O)c3ccccc3)c2-c2ccccc2)cc1`, for which the MIC result in the assay on Proteus vulgaris, with Salmonella enteritidis, with Enterococcus faecalis, with Streptococcus pyogenes and in the assay on Pseudomonas aeruginosa was “inactive” in each case. In addition, the MIC came out at 310 µM (≈ 128 µg/mL) against Bacillus subtilis; 155 µM (≈ 63.9 µg/mL) against Klebsiella pneumoniae; 310 µM (≈ 128 µg/mL) with Staphylococcus aureus; 155 µM (≈ 63.9 µg/mL) against Escherichia coli; 78 µM (≈ 32.2 µg/mL) against Xanthomonas campestris.
`COC(=O)c1ccc(-n2nc(C(=O)OC)c(C(=O)c3ccccc3)c2-c2ccccc2)cc1`: the MIC result with Proteus vulgaris, with Salmonella enteritidis, with Enterococcus faecalis, in the assay on Staphylococcus aureus, in the assay on Xanthomonas campestris and in the assay on Streptococcus pyogenes was “inactive” in each case. The MIC entry in the assay on Pseudomonas aeruginosa was “inactive”. The MIC with Bacillus subtilis turned out to be 290 µM (≈ 128 µg/mL); against Klebsiella pneumoniae it was 145 µM (≈ 63.9 µg/mL); with Escherichia coli it was 145 µM (≈ 63.9 µg/mL).
In the case of `O=C(NC(=O)c1ccc(-n2nc(C(=O)NC(=O)Nc3ccccc3)c(C(=O)c3ccccc3)c2-c2ccccc2)cc1)Nc1ccccc1`, the MIC entry in the assay on Proteus vulgaris, with Salmonella enteritidis, with Enterococcus faecalis, with Staphylococcus aureus, in the assay on Xanthomonas campestris and with Streptococcus pyogenes was “inactive” throughout. Further, the MIC result with Pseudomonas aeruginosa is “inactive”. Besides, the results for the minimum inhibitory concentration (MIC) against Bacillus subtilis, against Klebsiella pneumoniae and with Escherichia coli were 197 µM (≈ 128 µg/mL), 99 µM (≈ 64.2 µg/mL) and 99 µM (≈ 64.2 µg/mL), respectively.
For `O=C(O)c1ccc(-n2nc3c(=O)[nH]nc(-c4ccccc4)c3c2-c2ccccc2)cc1`, the MIC against Proteus vulgaris was found to be 157 µM (≈ 64.1 µg/mL); with Bacillus subtilis, 313 µM (≈ 128 µg/mL); with Klebsiella pneumoniae, 157 µM (≈ 64.1 µg/mL); against Escherichia coli it was 157 µM (≈ 64.1 µg/mL); in the assay with Xanthomonas campestris it was 313 µM (≈ 128 µg/mL); with Pseudomonas aeruginosa, 157 µM (≈ 64.1 µg/mL). For the same compound, the MIC result in the assay on Salmonella enteritidis, in the assay on Enterococcus faecalis, in the assay on Staphylococcus aureus and with Streptococcus pyogenes was “inactive” in each case.
For the compound `O=C(N[C@H](CO)[C@H](O)c1ccc([N+](=O)[O-])cc1)C(Cl)Cl` [CHLORAMPHENICOL], the minimum inhibitory concentration (MIC) in the assay with Proteus vulgaris was 74 µM (≈ 23.9 µg/mL); with Bacillus subtilis, 74 µM (≈ 23.9 µg/mL); in the assay on Salmonella enteritidis it was 74 µM (≈ 23.9 µg/mL); in the assay with Enterococcus faecalis, 37 µM (≈ 12 µg/mL); in the assay on Klebsiella pneumoniae it was 37 µM (≈ 12 µg/mL); in the assay with Staphylococcus aureus, 19 µM (≈ 6.14 µg/mL). Besides, the MIC against Escherichia coli was 19 µM (≈ 6.14 µg/mL); in the assay with Xanthomonas campestris, 37 µM (≈ 12 µg/mL); against Streptococcus pyogenes, 37 µM (≈ 12 µg/mL); in the assay with Pseudomonas aeruginosa it was 74 µM (≈ 23.9 µg/mL).
As for `CCN(CC)C(=O)c1ccc(-n2nc(C(=O)N(CC)CC)c(C(=O)c3ccccc3)c2-c2ccccc2)cc1`, the MIC entry in the assay with Proteus vulgaris, in the assay with Salmonella enteritidis, in the assay on Enterococcus faecalis, in the assay on Staphylococcus aureus, with Streptococcus pyogenes and with Pseudomonas aeruginosa was “inactive” in each case. For the same compound, the minimal inhibitory concentration (MIC) in the assay on Bacillus subtilis was 245 µM (≈ 128 µg/mL); in the assay on Klebsiella pneumoniae, 123 µM (≈ 64.3 µg/mL); against Escherichia coli it was 123 µM (≈ 64.3 µg/mL); against Xanthomonas campestris it was 245 µM (≈ 128 µg/mL).
Take `Cn1nc(-c2ccccc2)c2c(-c3ccccc3)n(-c3ccc(C(=O)O)cc3)nc2c1=O`: the MIC entry in the assay with Proteus vulgaris, in the assay on Salmonella enteritidis, with Enterococcus faecalis, in the assay with Staphylococcus aureus and in the assay with Streptococcus pyogenes was “inactive” throughout. For the same compound, the MIC in the assay on Bacillus subtilis is 303 µM (≈ 128 µg/mL); in the assay on Klebsiella pneumoniae, 152 µM (≈ 64.2 µg/mL); in the assay on Escherichia coli, 152 µM (≈ 64.2 µg/mL); against Xanthomonas campestris it was 303 µM (≈ 128 µg/mL); against Pseudomonas aeruginosa, 303 µM (≈ 128 µg/mL).
On to `CNC(=O)NC(=O)c1ccc(-n2nc(C(=O)NC(=O)NC)c(C(=O)c3ccccc3)c2-c2ccccc2)cc1`, for which the MIC result in the assay on Proteus vulgaris, in the assay with Salmonella enteritidis, in the assay with Enterococcus faecalis, in the assay with Staphylococcus aureus, in the assay with Xanthomonas campestris and in the assay on Streptococcus pyogenes was “inactive” throughout. The MIC entry with Pseudomonas aeruginosa was “inactive”. Also, the MIC is 244 µM (≈ 128 µg/mL) with Bacillus subtilis, 122 µM (≈ 64 µg/mL) in the assay on Klebsiella pneumoniae and 122 µM (≈ 64 µg/mL) with Escherichia coli.
In the case of `N#Cc1ccc(-n2nc(C#N)c(C(=O)c3ccccc3)c2-c2ccccc2)cc1`, the MIC entry in the assay with Proteus vulgaris, with Salmonella enteritidis, with Enterococcus faecalis, in the assay with Staphylococcus aureus, with Streptococcus pyogenes and in the assay with Pseudomonas aeruginosa was “inactive” throughout. Further, the MIC against Bacillus subtilis was determined as 171 µM (≈ 64 µg/mL); in the assay with Klebsiella pneumoniae, 171 µM (≈ 64 µg/mL); in the assay on Escherichia coli, 171 µM (≈ 64 µg/mL); with Xanthomonas campestris, 342 µM (≈ 128 µg/mL).
For `CCCCOC(=O)c1ccc(-n2nc(C(=O)OCCCC)c(C(=O)c3ccccc3)c2-c2ccccc2)cc1`, the MIC result in the assay with Proteus vulgaris, with Salmonella enteritidis, in the assay on Enterococcus faecalis, in the assay on Staphylococcus aureus, in the assay on Streptococcus pyogenes and in the assay with Pseudomonas aeruginosa was “inactive” each time. Further, the MIC with Bacillus subtilis amounted to 122 µM (≈ 64 µg/mL); with Klebsiella pneumoniae it was 122 µM (≈ 64 µg/mL); against Escherichia coli it was 122 µM (≈ 64 µg/mL); in the assay with Xanthomonas campestris, 244 µM (≈ 128 µg/mL).
Turning to `NC(=O)c1ccc(-n2nc(C(N)=O)c(C(=O)c3ccccc3)c2-c2ccccc2)cc1`, the MIC entry in the assay with Proteus vulgaris, with Bacillus subtilis, with Salmonella enteritidis, in the assay with Enterococcus faecalis, in the assay with Staphylococcus aureus and in the assay with Xanthomonas campestris was “inactive” each time. Further, the MIC entry with Streptococcus pyogenes and in the assay on Pseudomonas aeruginosa was “inactive” in each case. The MIC against Klebsiella pneumoniae and in the assay with Escherichia coli was 156 µM (≈ 64 µg/mL) throughout.
For the compound `O=C(NCc1ccccc1)NC(=O)c1ccc(-n2nc(C(=O)NC(=O)NCc3ccccc3)c(C(=O)c3ccccc3)c2-c2ccccc2)cc1`, the MIC result in the assay on Proteus vulgaris, with Salmonella enteritidis, in the assay with Enterococcus faecalis, with Staphylococcus aureus, in the assay with Xanthomonas campestris and in the assay with Streptococcus pyogenes was “inactive” in each case. In addition, the MIC entry with Pseudomonas aeruginosa is “inactive”. Besides, the MIC in the assay with Bacillus subtilis was 189 µM (≈ 128 µg/mL); in the assay with Klebsiella pneumoniae it was 95 µM (≈ 64.3 µg/mL); in the assay on Escherichia coli, 95 µM (≈ 64.3 µg/mL).
Consider `O=C(O)c1ccc(N/N=C(\c2ccccc2)c2c(-c3ccccc3)nn(-c3ccc(C(=O)O)cc3)c(=O)c2O)cc1`, for which the MIC entry in the assay on Proteus vulgaris, in the assay with Bacillus subtilis, with Salmonella enteritidis, with Enterococcus faecalis, in the assay with Staphylococcus aureus and in the assay with Xanthomonas campestris was “inactive” each time. Further, the MIC entry in the assay with Streptococcus pyogenes and in the assay on Pseudomonas aeruginosa was “inactive” in each case. In addition, the MIC in the assay on Klebsiella pneumoniae and with Escherichia coli was 117 µM (≈ 63.9 µg/mL) each time.
Regarding `O=C(O)c1ccc(-n2nc3c(=O)n(-c4ccccc4)nc(-c4ccccc4)c3c2-c2ccccc2)cc1`, the MIC result with Proteus vulgaris, in the assay on Salmonella enteritidis, in the assay on Enterococcus faecalis, in the assay on Staphylococcus aureus and in the assay with Streptococcus pyogenes was “inactive” in each case. Also, the MIC against Bacillus subtilis amounted to 264 µM (≈ 128 µg/mL); in the assay on Klebsiella pneumoniae it was 132 µM (≈ 64 µg/mL); in the assay on Escherichia coli, 132 µM (≈ 64 µg/mL); against Xanthomonas campestris, 264 µM (≈ 128 µg/mL); with Pseudomonas aeruginosa it was 132 µM (≈ 64 µg/mL).
On to `O=C(Cl)c1ccc(-n2nc(C(=O)Cl)c(C(=O)c3ccccc3)c2-c2ccccc2)cc1`, for which the MIC entry in the assay on Proteus vulgaris, in the assay with Bacillus subtilis, with Salmonella enteritidis, in the assay on Enterococcus faecalis, in the assay with Staphylococcus aureus and in the assay on Streptococcus pyogenes was “inactive” in each case. For the same compound, the MIC result with Pseudomonas aeruginosa was “inactive”. In addition, the MIC was 142 µM (≈ 63.8 µg/mL) against Klebsiella pneumoniae, 142 µM (≈ 63.8 µg/mL) with Escherichia coli and 285 µM (≈ 128 µg/mL) with Xanthomonas campestris.
Consider `CC(C)OC(=O)c1ccc(-n2nc(C(=O)OC(C)C)c(C(=O)c3ccccc3)c2-c2ccccc2)cc1`, for which the MIC entry with Proteus vulgaris, in the assay on Salmonella enteritidis, in the assay with Enterococcus faecalis, with Staphylococcus aureus, with Streptococcus pyogenes and in the assay with Pseudomonas aeruginosa was “inactive” throughout. Further, the MIC against Bacillus subtilis is 129 µM (≈ 64.1 µg/mL); against Klebsiella pneumoniae, 129 µM (≈ 64.1 µg/mL); in the assay on Escherichia coli it was 129 µM (≈ 64.1 µg/mL); in the assay on Xanthomonas campestris it was 258 µM (≈ 128 µg/mL).
Consider `CCOC(=O)c1ccc(-n2nc(C(=O)OCC)c(C(=O)c3ccccc3)c2-c2ccccc2)cc1`, for which the MIC entry with Proteus vulgaris, with Salmonella enteritidis, in the assay on Enterococcus faecalis, in the assay on Staphylococcus aureus, in the assay on Xanthomonas campestris and with Streptococcus pyogenes was “inactive” each time. The MIC entry in the assay on Pseudomonas aeruginosa is “inactive”. Moreover, the MIC with Bacillus subtilis, in the assay on Klebsiella pneumoniae and against Escherichia coli was 137 µM (≈ 64.2 µg/mL) throughout.
